From a melting point compilation (Tetko et al.; mined from patent text by program, amines drawn as free bases though some values may be those of a salt) come the findings set out here.

Usually melting point stands for the temperature, or range, at which the solid turns liquid. `CC(=O)Oc1c(C(C)(C)C)cc(CCCO)cc1C(C)(C)C` showed a melting point of 93 to 95 °C.

The compound `Nc1ncc(-c2cccc(Cl)c2Cl)c(N)n1` registered a melting point of 208 to 211 °C. The figure for `O=C1N[C@H](Cc2ccc(C(F)(F)F)c(F)c2)[C@H](c2ccc(F)cc2)O1` (racemic) is 122 to 123 °C. With `CC(=O)Oc1ccc(C2=CC(C)(C)c3ccccc3O2)cc1`, the melting point is 84 to 86 °C. The figure for `N#CC1C2OCC(O2)C(OCc2ccccc2)C1O` (centres undefined) is 152 to 156 °C. The figure for `Cc1cc(C)c2c(c1C)NC(C)(CCCC(C)CCCC(C)CCCC(C)C)CC2` (centres undefined) is 72 to 73 °C; for `Cc1c(C)c(C)c2c(c1C)C=CC(C)(COc1ccc([N+](=O)[O-])cc1)O2` (centres undefined) it is 142 to 145 °C; for `CCCc1nc2c(N)nc3cc(Oc4cccc([N+](=O)[O-])c4)ccc3c2n1CC(C)C` it is 198 to 200 °C. As for `COc1cc2c(cc1C=O)C(C)(C)C(=O)N2C`, the figure is 192 to 194 °C. In the case of `O=Cc1ccc(C=Cc2ccc(C=O)cc2)cc1`, the melting point worked out at 169 °C. As for `C=C(C)CN1CCN(CC(=O)N2c3ccccc3C(=O)Nc3cccnc32)CC1`, the figure is 205 to 207 °C; as for `O=C(O)CCC(=O)OCc1ccc(-c2nn(-c3ccc(Br)cc3)c3ccccc23)o1`, 111 to 113 °C; as for `CC(C)(C)OC(=O)CN(C(=O)CNC(=O)c1cc2ccccc2[nH]1)c1ccccc1`, 203 °C.

In the case of `CC(C)(C)C(=O)Nc1ccc(Cl)cc1F`, the melting point was in the range of 70.5 to 71 °C. The figure for `CNC(=C[N+](=O)[O-])NCCCCc1ccccn1` is 90 to 91 °C; for `COc1cc(OC)c(C(=O)C=Cc2ccc(SC)cc2)c(OP(=O)(O)O)c1` it is 63 to 66 °C; for `CC1=CC(=O)N(c2cc(-n3c(=O)n(C)c(=O)n(CC(=O)OC(C)C)c3=O)c(Cl)cc2F)C1=O` it is 110 to 120 °C. `CC(C(=O)O)c1ccc(C=C2CCCCC2=O)cc1` (centres undefined) registered a melting point of 108 to 110 °C. The figure for `CN1CC2=C(n3cnc(I)c3C1)S(=O)C=C2` (centres undefined) is 175 to 177 °C. Regarding `CCOC(=O)C(C)=Cc1cn(Cc2ccc(C(=O)OC(C)(C)C)cc2OC)c2cc(C(=O)NCC3CCCC3)ccc12`, the melting point is 118 to 120 °C.

With `Cc1nccn1-c1nc(-c2ccc(Cl)cc2)c(CCCCOS(C)(=O)=O)o1`, the melting point is 100 to 101 °C. `O=C(/C=C/c1ccc(O)cc1)C(F)(F)F` registered a melting point of 106 to 107 °C. As to `CC(=O)C1=CCC2C3CCC4CC(OS(=O)(=O)c5ccc(C)cc5)CCC4(C)C3C(=O)CC12C` (centres undefined), the melting point is 147 to 151 °C. The figure for `Cc1c(NC(=O)c2ccc(C#CC3(O)CCC3)cc2)ccc2cc(CNCC3CCOCC3)n(C)c12` is 202 to 204 °C; for `CC(C)(C)C(F)(F)c1ccc(C[C@@H](NC(=O)c2ccc(F)c3ccccc23)[C@@H](O)c2cccc(Cl)c2)cc1` (racemic) it is 104 to 106 °C; for `CC1(C)Oc2ccc(C#N)cc2[C@@H](NNC(=O)c2ccccc2)[C@@H]1O` (relative stereo) it is 197 to 199 °C.

In turn, `CCOCc1nc2c(N)nc3cc(-c4cccnc4)ccc3c2n1Cc1ccc(CNC(=O)OC(C)(C)C)cc1` gave a melting point of 196 to 197 °C. Take `O=C(O)c1cc(=O)c2cc3c(=O)cc(C(=O)O)[nH]c3c(Cl)c2[nH]1`: the melting point was above 310 °C.

Regarding `Cc1cc2ncc(-c3nnnn3C)c(O)c2cc1C`, the melting point was 301 to 303 °C. The figure for `CCCc1c(OCc2ccc(CC#N)cc2)ccc(C(C)=O)c1O` is 75 to 76 °C; for `NC(Cc1nc2cc3ccccc3cc2nc1CP(=O)(O)O)C(=O)OCc1ccccc1` (centres undefined) it is 215 °C. As for `C[Si](C)(C)C#Cc1ccc(O)cc1`, the figure is 60 to 63.5 °C. Compound `CCOC(=O)c1ccc(NC(=S)NCCn2c(C)ccc2C)cc1` came in with a melting point of 155 to 156 °C. As to `CCOC(=O)c1ccccc1NC(=O)CNc1ccccc1F`, the melting point was in the range of 79 to 81 °C. The figure for `CCC(=O)c1ccc(OCCOC)cc1` is 31 to 35 °C. The figure for `COC(=O)C(=O)c1ccc(OCCOc2ccc3ccccc3c2)c([N+](=O)[O-])c1` is 127 to 129 °C; for `CCOCc1nc2c(N)nc3cccnc3c2n1CC1(O)CC1` it is 178 to 179 °C. The figure for `CC1(C)N=C(c2ccccc2F)c2cc(N)ccc2NC1=O` is 203 °C; for `CC(C)c1ccc(N(Cc2ccc(N(C)C)cc2)C(=O)C2CCSc3ccccc32)cc1` (centres undefined) it is 118 °C. The compound `N#Cc1cc(=O)c(-c2ccccc2)co1` registered a melting point of 177 to 179 °C.

Regarding `Cc1cccc2c1nc1n2CC(c2ccccn2)S1` (centres undefined), the melting point came to 96 °C. The figure for `CCC1(CC)C(=N)N(c2ccc(C#N)c(C(F)(F)F)c2)C(=S)N1C` is 167 to 168 °C; for `O=CN1CCC(c2nn(-c3ccc(F)cc3)c3ccccc23)CC1` it is 128 to 130 °C. As for `CCCC(CCC)C(=O)OC1N=C(c2ccccc2Cl)c2cc(Cl)ccc2NC1=O` (centres undefined), the figure is 191 to 193 °C; as for `CC(C)COc1nc(N)c2ncn(C3CCCCC3)c2n1`, 123 to 134 °C; as for `CCOC(=O)c1nnn(O)n1`, 75 to 78 °C. As for `CS(=O)(=O)c1ccc(/C(=C\C2CCCCC2)C(=O)O)cc1[N+](=O)[O-]`, the melting point was in the range of 244 to 247 °C. As for `CCOC(=O)C(=O)C(C#N)c1ccc(Br)cc1` (centres undefined), the figure is 146 °C; as for `O=CNc1nc(OCc2ccccc2)ncc1F`, 153 to 157 °C; as for `OCCOC1=Nc2ccc(Cl)cc2C(c2ccccc2)=NC1`, 142 to 144 °C. In the case of `CC(C)n1cccc1C(N)=S`, the melting point was 97.5 to 100 °C. With `N#CCOc1ccc2cc(-c3cc4ccccc4s3)ccc2c1Br`, the melting point lay in the range of 179 to 181 °C. Regarding `O=C(NC1N=C(c2ccccc2)c2ccccc2NC1=O)c1c[nH]c2ccccc12` (racemic), the melting point is 265 to 268 °C. `CC1(C)NC(=O)N(CC(CS(=O)(=O)c2ccc(-c3ccc(OC(F)(F)F)cc3)cc2)N(O)C=O)C1=O` (centres undefined) registered a melting point of 195 to 197 °C. `CCOC(=O)C1=C(C)NC(C)=C(C(=O)OCCSc2ccccc2)C1C` (centres undefined): the melting point was in the range of 143 to 145 °C. The figure for `O=C(NCc1ccccn1)Nc1cc(N2CC(COCc3ccccc3)OC2=O)ccn1` (centres undefined) is 134 to 135 °C.

On to `CCOC(=O)n1c(Cc2ccccc2)noc1=O`, for which the melting point was 129 °C. In the case of `O=C(NN1CCCCC1)C1=NN(c2ccc(Cl)cc2Cl)C(c2ccccc2)C1` (centres undefined), the melting point was in the range of 160 to 164 °C.

`CS(=O)(=O)c1cc(OC[C@@H](O)CN[C@H]2CC[C@H](c3ccc(C(=O)N4Cc5ccccc5C4)cc3)CC2)ccc1O` had a melting point of 110 °C.

The compound `c1cnc2ccc(Cn3nnc4ccc(-c5ccc6[nH]ccc6c5)nc43)cc2c1` returned a melting point of 120 to 122 °C. With `CN1CCCc2ccc(NC(=O)/C=C/c3ccc(C(C)(C)C)cc3)cc21`, the melting point was in the range of 200 to 202 °C. As for `O=Cc1cnn2c(-c3cccc(C(F)(F)F)c3)ccnc12`, the figure is 168 to 170 °C; as for `Cc1nc2c(Cl)c(NC(=O)Cc3ccc(Cl)cc3Cl)ccc2s1`, 257 to 258 °C; as for `Cc1nn(-c2cc(OC(C)C)c(Cl)cc2Cl)c(=O)[nH]c1=O`, 163 to 164 °C. As for `CCOC(=NC(=O)c1cc(Cl)nc(Cl)c1)N1Cc2ccccc2-c2ccccc2C1`, the figure is 151 to 152 °C. The compound `CCOC(=O)c1cccc2c1Nc1ccc(C(=O)c3ccccc3)cc1N2C(=O)OC` registered a melting point of 112 to 115 °C. `CCCCS(=O)(=O)NC(=O)N1CC1C#N` (centres undefined) came in with a melting point of 80 to 85 °C. The figure for `COc1ccc(C2CNC(=O)C2)cc1Br` (centres undefined) is 151 to 154 °C. As for `CN1C(=O)N2[C@H](c3cccc(O)c3)c3[nH]c4ccc(Br)cc4c3C[C@@]2(C)C1=O` (racemic), the figure is 248 to 251 °C; as for `N#CSc1ccc(N)c(Br)c1`, 74 to 79 °C.

The compound `CCC(C(=O)O)N(C(=O)c1cccn1-c1ccc(F)cc1)c1ccc(N2CCCCC2)c(C#N)c1` (centres undefined) gave a melting point of 138 to 139 °C. `OC12CC3CC(C1)C(NC(c1ccccc1)(c1ccccc1)c1ccccc1)C(C3)C2` (centres undefined) gave a melting point of 166 to 170 °C. `Cn1cc(-c2cccc(N3Cc4cc(C5CC5)sc4C3=O)c2CO)cc(Nc2ccncn2)c1=O` came in with a melting point of 140 to 141 °C. The figure for `CC1CCC2(C)C(CCC3C4CCC(=O)C4(C)CCC32)C1` (centres undefined) is 107 to 108 °C; for `CCc1cc([N+](=O)[O-])c(N)c([N+](=O)[O-])c1COC` it is 71 to 73 °C. As for `N#CC=Cc1ccc(N)cc1`, the melting point was in the range of 109 to 110 °C. The figure for `Clc1cccc2c(C3=CCNCC3)c[nH]c12` is 197 to 201 °C; for `NNC(=C[N+](=O)[O-])NCc1ccc(Cl)nc1` it is 188 to 190 °C; for `CCOC(=O)c1c(CCl)nc2sc(C)c(C)c2c1-c1ccc(Cl)cc1` it is 132 to 144 °C. `O=C(Cn1c(-c2ccc(Br)cc2)nc2cccnc21)N1CCCCC1`: the melting point lay in the range of 175 to 176 °C.

Compound `CC(C)c1ccc(NC(=O)OC(C)(C)C)c(NC(=O)CC(=O)c2ccnc(C#N)c2)c1` registered a melting point of 163 to 165 °C. As for `Cc1ccn2c(C)c(CCc3ccc4nc(NC(=N)N)oc4c3)nc2c1`, the figure is 195 to 196 °C; as for `Cc1scc2c1N(C(=O)CN1CCCCC1CN(C)C)c1ccccc1NC2=O` (centres undefined), 172 to 173 °C; as for `CNC(CSCC(=O)c1ccc2[nH]c3ncc(Cl)cc3c2c1)NC`, 176 to 177 °C.

In the case of `OCc1cc(-c2ccc(Cl)cc2)on1`, the melting point lay within 93 to 95 °C.

`CCc1cccc2c3c([nH]c12)C(CC)(CC(=O)OC)OCC3NC(N)=O` (centres undefined) registered a melting point of 180 °C. As for `COC(=O)/C=C/c1ccc(OCc2oc(-c3ccc(C(F)(F)F)cc3)nc2C)cc1C`, the figure is 124 to 126 °C; as for `NS(=O)(=O)OCCOc1cccc(OCCOS(N)(=O)=O)c1`, 147 to 149 °C; as for `CCOC(=O)C(NS(=O)(=O)c1ccc(C)cc1)C1CCOC1C#N` (centres undefined), 105 to 107 °C.
